The values that follow come from ChEMBL document CHEMBL5576125, “Discovery of Pyrazolopyrazines as Selective, Potent, and Mutant-Active MET Inhibitors with Intracranial Efficacy” (J Med Chem, 2024).

Broadly, the IC50 is the concentration that inhibits the measured activity by half. As usually defined, the Papp A→B is the apparent permeability from the apical to the basolateral side of a cell layer. Usually efflux ratio stands for the permeability from basolateral to apical divided by that in the opposite direction, in the common usage.

The target of data set [1] is Hepatocyte growth factor receptor (Homo sapiens, UniProt P08581, Y1230H). Nature of the data set: Displacement of tracer 236 from N-terminal GST-tagged recombinant human MET Y1230H mutant (956 to end residues) expressed in Sf9 insect cells incubated for 1 hr by TR-FRET assay. Background: Time-resolved FRET reads energy transfer from a long-lived donor to a nearby acceptor.
Sequence of Hepatocyte growth factor receptor (Homo sapiens, UniProt P08581, Y1230H) (P08581 25-1390 Y1230H limits assumed): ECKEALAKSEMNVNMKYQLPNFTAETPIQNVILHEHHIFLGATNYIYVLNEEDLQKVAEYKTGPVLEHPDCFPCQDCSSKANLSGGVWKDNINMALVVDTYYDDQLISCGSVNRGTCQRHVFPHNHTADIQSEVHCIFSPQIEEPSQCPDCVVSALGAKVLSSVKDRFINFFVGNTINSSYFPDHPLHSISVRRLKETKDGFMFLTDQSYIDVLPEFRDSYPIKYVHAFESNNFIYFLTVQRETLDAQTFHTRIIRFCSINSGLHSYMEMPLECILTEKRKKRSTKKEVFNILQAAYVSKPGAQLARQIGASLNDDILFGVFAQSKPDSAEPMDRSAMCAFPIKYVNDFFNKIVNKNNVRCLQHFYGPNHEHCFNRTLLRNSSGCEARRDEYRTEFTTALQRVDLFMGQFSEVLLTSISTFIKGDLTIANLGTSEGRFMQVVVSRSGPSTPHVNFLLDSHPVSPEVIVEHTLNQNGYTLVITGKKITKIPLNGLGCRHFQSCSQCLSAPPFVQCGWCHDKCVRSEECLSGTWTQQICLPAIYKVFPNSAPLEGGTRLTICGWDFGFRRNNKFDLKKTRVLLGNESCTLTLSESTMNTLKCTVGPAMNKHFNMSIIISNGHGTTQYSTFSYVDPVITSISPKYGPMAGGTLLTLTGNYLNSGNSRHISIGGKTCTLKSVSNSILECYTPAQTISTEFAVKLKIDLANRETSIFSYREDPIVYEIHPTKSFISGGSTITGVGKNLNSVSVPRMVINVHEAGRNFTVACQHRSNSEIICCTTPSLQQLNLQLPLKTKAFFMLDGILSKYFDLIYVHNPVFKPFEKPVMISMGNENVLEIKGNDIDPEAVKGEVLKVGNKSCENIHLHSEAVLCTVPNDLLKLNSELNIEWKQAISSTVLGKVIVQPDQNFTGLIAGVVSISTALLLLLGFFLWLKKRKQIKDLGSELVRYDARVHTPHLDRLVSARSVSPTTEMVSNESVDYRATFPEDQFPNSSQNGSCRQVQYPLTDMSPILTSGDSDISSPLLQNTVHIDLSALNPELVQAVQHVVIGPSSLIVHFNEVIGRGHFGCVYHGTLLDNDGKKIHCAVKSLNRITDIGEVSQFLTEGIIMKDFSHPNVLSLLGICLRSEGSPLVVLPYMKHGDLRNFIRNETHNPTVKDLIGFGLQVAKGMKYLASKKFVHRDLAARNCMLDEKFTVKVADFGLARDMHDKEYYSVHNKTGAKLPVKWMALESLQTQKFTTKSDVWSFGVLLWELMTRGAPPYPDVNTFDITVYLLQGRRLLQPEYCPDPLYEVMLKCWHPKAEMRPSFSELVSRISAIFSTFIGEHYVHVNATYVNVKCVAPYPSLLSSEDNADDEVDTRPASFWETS

Data set [2] in a line: Metabolic stability in human hepatocytes assessed as clearance at 2 uM measured upto 120 mins by LC-MS/MS analysis. In kind it is ADME, cell-based, Hepatocyte.
Data set [3] can be described thus: Apparent permeability across apical to basolateral side in MDCKII-MDR1 cells at 1 uM incubated for 2 hrs in orbital shaker by LC-MS/MS analysis. In kind it is ADME, cell-based, Canis lupus familiaris. Particulars: dog, MDCK-MDR1.
Data set [4] addresses T1, Hepatocyte growth factor receptor (Homo sapiens, UniProt P08581, D1228N). Nature of the data set: Inhibition of MET D1228N mutant (unknown origin) transfected in mouse NIH3T3 cells incubated for 1 hr by In-Cell Western assay. In kind it is cell-based.
In data set [5] the target is T1, Hepatocyte growth factor receptor. Nature of the data set: Displacement of tracer 236 from N-terminal GST-tagged recombinant human MET D1228N mutant (956 to end residues) expressed in Sf9 insect cells incubated for 1 hr by TR-FRET assay.
Data set [6] can be described thus: Displacement of tracer 236 from N-terminal GST-tagged recombinant human MET […] mutant (956 to end residues) expressed in Sf9 insect cells incubated for 1 hr by TR-FRET assay.
Data set [7] in a line: Efflux ratio of apparent permeability across basolateral to apical over apical to basolateral side in MDCKII-MDR1 cells at 1 uM incubated for 2 hrs in orbital shaker by LC-MS/MS analysis. In kind it is ADME, cell-based, Canis lupus familiaris. Particulars: dog, MDCK-MDR1.
Data set [8] in a line: Metabolic stability in mouse hepatocytes assessed as clearance at 2 uM measured upto 120 mins by LC-MS/MS analysis. It is filed as ADME, cell-based, Hepatocyte.
Data set [9] concerns the target Hepatocyte growth factor receptor (Homo sapiens, UniProt P08581, F1200I). Nature of the data set: Displacement of tracer 236 from N-terminal GST-tagged recombinant human MET F1200I mutant (956 to end residues) expressed in Sf9 insect cells incubated for 1 hr by TR-FRET assay.
Data set [10] can be described thus: Displacement of tracer 236 from N-terminal GST-tagged recombinant human MET exon 14 deletion mutant (956 to end residues) expressed in Sf9 insect cells incubated for 1 hr by TR-FRET assay.
The target of data set [11] is Vascular endothelial growth factor receptor 2 (Homo sapiens, UniProt P35968). Nature of the data set: Inhibition of VEGFR-2 (unknown origin) by cell based assay. In kind it is toxicity.
Sequence of Vascular endothelial growth factor receptor 2 (P35968 whole entry): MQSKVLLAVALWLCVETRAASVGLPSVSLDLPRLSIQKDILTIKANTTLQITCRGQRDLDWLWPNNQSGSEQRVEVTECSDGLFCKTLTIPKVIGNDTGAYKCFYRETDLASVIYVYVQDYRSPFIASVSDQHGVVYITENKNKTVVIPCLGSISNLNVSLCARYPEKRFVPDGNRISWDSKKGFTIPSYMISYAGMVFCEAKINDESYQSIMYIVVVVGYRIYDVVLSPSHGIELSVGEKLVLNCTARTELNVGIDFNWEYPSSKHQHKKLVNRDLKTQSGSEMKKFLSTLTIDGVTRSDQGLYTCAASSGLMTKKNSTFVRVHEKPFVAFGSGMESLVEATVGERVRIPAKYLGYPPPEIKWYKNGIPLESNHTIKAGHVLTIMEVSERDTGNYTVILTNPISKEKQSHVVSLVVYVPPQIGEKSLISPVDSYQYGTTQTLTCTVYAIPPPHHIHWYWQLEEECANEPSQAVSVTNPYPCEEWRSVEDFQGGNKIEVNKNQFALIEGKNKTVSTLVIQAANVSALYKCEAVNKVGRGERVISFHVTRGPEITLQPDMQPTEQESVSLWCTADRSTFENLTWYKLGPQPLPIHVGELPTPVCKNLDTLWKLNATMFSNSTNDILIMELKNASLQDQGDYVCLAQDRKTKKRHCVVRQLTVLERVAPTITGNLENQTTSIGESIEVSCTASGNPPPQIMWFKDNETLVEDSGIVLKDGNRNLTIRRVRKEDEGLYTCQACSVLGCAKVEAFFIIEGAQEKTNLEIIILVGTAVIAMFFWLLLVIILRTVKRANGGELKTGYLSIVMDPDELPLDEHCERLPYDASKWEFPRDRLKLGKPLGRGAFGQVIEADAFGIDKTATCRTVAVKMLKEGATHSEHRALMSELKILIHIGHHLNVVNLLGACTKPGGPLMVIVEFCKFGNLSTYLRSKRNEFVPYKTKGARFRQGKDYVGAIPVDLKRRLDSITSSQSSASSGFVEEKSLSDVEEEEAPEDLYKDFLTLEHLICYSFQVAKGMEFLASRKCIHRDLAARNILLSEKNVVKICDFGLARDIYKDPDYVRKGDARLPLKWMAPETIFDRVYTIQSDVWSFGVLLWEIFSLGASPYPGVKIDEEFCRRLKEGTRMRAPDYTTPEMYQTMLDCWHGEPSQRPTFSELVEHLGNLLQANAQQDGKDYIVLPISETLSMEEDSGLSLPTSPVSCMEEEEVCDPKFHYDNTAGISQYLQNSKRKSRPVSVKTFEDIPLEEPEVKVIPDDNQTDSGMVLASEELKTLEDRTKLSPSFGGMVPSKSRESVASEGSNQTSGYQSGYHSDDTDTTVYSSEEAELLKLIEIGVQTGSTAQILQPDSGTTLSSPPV

A value given as a limit tells only on which side of the number the result lay.

T1 sequence (P08581 25-1390 D1228N limits assumed): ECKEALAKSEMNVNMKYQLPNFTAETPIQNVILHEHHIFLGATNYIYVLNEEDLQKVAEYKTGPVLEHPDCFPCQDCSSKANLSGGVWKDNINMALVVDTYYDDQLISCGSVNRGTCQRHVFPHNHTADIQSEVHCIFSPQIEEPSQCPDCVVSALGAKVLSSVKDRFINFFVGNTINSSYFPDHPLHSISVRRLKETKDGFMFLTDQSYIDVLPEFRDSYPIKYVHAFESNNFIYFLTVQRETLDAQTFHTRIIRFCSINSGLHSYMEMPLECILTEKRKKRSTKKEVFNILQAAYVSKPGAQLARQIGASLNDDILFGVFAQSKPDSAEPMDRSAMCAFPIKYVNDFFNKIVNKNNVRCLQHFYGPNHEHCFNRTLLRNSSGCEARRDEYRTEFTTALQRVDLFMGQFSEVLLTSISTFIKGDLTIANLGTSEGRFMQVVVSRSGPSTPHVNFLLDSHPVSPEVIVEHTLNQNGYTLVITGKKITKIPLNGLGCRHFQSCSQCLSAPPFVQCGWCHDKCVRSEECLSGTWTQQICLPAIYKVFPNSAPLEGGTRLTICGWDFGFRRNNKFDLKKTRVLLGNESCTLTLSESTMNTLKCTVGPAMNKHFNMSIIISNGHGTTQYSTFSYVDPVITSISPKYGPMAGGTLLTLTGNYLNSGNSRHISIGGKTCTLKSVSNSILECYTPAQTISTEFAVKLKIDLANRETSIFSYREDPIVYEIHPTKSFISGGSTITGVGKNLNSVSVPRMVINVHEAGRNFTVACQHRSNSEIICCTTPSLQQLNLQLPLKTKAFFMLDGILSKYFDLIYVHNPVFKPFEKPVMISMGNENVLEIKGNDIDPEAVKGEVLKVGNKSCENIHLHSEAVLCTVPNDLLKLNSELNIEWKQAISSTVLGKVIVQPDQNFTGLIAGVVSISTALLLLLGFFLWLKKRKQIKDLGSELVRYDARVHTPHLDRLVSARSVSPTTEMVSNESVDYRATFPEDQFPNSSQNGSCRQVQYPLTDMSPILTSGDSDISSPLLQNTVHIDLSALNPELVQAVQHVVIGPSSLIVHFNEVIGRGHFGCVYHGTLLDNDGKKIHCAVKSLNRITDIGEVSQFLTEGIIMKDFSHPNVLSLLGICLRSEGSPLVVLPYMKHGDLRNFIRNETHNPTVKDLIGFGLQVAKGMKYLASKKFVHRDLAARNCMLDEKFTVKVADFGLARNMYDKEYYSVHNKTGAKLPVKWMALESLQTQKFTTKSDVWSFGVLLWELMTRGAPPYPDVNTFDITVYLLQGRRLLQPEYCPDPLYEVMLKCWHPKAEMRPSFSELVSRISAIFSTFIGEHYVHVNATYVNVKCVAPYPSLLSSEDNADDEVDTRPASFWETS

As to `Cc1cc(N(c2nccn3nccc23)[C@H]2C[C@H](c3ccn(C)n3)C2)c(F)cc1NC(=O)c1ccnn(-c2ccc(F)cn2)c1=O`, the IC50 in [1] was 5 nM; in data set [4] it was 41 nM; in data set [5], 10 nM; in [6], 64 nM; in data set [9], 217 nM. The CLhep predicted at 2 µM was 22 mL/min/kg in data set [2] and 17 mL/min/kg in data set [8]. In addition, the Papp A→B at 2 h, 1 µM in data set [3] is 4 ×10⁻⁶ cm/s. Also, the efflux ratio at 2 h, 1 µM in data set [7] stood at 0.9.

For the molecule `COc1cc(N(c2cc(F)c(NC(=O)c3ccnn(-c4ccc(F)cn4)c3=O)cc2F)[C@H]2C[C@H](c3ccn(C)n3)C2)c2ccnn2c1`, the IC50 was 16 nM in data set [10]; 17 nM in [1]; 22 nM in data set [4]; 11 nM in data set [5]; 32 nM in [6]; 54 nM in data set [9]. In addition, the CLhep predicted at 2 µM in data set [2] is 12 mL/min/kg; in data set [8], 38 mL/min/kg.

`CO[C@H]1C[C@@H](N(c2cc(F)c(NC(=O)c3ccnn(-c4ccc(F)cn4)c3=O)cc2F)c2cccn3nccc23)C1`: the IC50 in [10] stood at 4 nM; in data set [1] it was 6 nM; in data set [4] it was 39 nM; in [5], 7 nM; in data set [6] it was 46 nM; in data set [9], 171 nM.

As for `Cc1cc2c(N(c3cc(F)c(NC(=O)c4ccnn(-c5ccc(F)cn5)c4=O)cc3F)[C@H]3C[C@H](c4ccn(C)n4)C3)nccn2n1`, the IC50 in data set [10] is 397 nM; in [1], 758 nM; in data set [4] it was greater than 5000 nM; in data set [5], 1770 nM; in data set [9], 5000 nM. In addition, in data set [7], the efflux ratio at 2 h, 1 µM came to 0.9.

Turning to `Cc1cc(N(c2cc(F)c(NC(=O)c3ccnn(-c4ccc(F)cn4)c3=O)cc2F)[C@H]2C[C@H](c3ccn(C)n3)C2)c(F)cn1`, the IC50 is 5 nM in data set [1]; 40 nM in data set [4]; 6 nM in data set [5]; 36 nM in data set [6]; 98 nM in [9]. The CLhep predicted at 2 µM in data set [2] was 9 mL/min/kg; in [8], 31 mL/min/kg. The Papp A→B at 2 h, 1 µM in data set [3] amounted to 15 ×10⁻⁶ cm/s.

For `Cn1ccc([C@H]2C[C@H](N(c3cc(F)c(NC(=O)c4ccnn(-c5ccc(F)cn5)c4=O)cc3F)c3cc(F)cn4nccc34)C2)n1`, the IC50 in [10] came out at 13 nM; in data set [1], 11 nM; in [4] it was 37 nM; in [5] it was 33 nM; in data set [6], 41 nM; in [9] it was 278 nM. In addition, the CLhep predicted at 2 µM in data set [2] was 3 mL/min/kg; in [8], 15 mL/min/kg. Also, in data set [3], the Papp A→B at 2 h, 1 µM worked out at 2 ×10⁻⁶ cm/s.

`COCCNCc1ccc(-c2cc3nccc(Oc4ccc(NC(=S)NC(=O)Cc5ccc(F)cc5)cc4F)c3s2)nc1` [GLESATINIB] returned an IC50 in data set [11] of 172 nM.

As for `CC(C)N(c1cc(F)c(NC(=O)c2ccnn(-c3ccc(F)cc3)c2=O)cc1F)c1cccn2nccc12`, the IC50 in data set [10] worked out at 71 nM; in data set [1] it was 92 nM; in [4], 336 nM; in data set [5], 86 nM; in [6], 298 nM; in data set [9], 763 nM.

`Cn1ccc([C@H]2C[C@H](N(c3cc(F)c(NC(=O)c4ccnn(-c5ccc(F)cn5)c4=O)cc3Cl)c3nccn4nccc34)C2)n1`: the concentration for half-maximal inhibition (IC50) is 6 nM in [10]; 7 nM in data set [1]; 28 nM in [4]; 9 nM in data set [5]; 36 nM in data set [6]; 147 nM in data set [9]. The results for the CLhep predicted at 2 µM in [2] and in data set [8] were 9 mL/min/kg and 31 mL/min/kg, respectively. In addition, in [3], the Papp A→B at 2 h, 1 µM was 5 ×10⁻⁶ cm/s.

As to `O=C(Nc1cc(F)c(Oc2cccn3nccc23)cc1F)c1ccnn(-c2ccc(F)cc2)c1=O`, the IC50 came out at 27 nM in data set [10]; 84 nM in [1]; 1680 nM in data set [4]; 165 nM in data set [5]; 717 nM in data set [6]; 5000 nM in data set [9].

For `CC(C)(C#N)CN(c1cc(F)c(NC(=O)c2ccnn(-c3ccc(F)cc3)c2=O)cc1F)c1cccn2nccc12`, the IC50 is 7 nM in [1]; 25 nM in data set [4]; 8 nM in data set [5]; 53 nM in data set [6]; 326 nM in data set [9].

As for `Cn1ccc([C@H]2C[C@H](N(c3cc(C(F)F)c(NC(=O)c4ccnn(-c5ccc(F)cn5)c4=O)cc3F)c3nccn4nccc34)C2)n1`, the IC50 in data set [10] is 13 nM; in data set [1], 32 nM; in data set [4], 519 nM; in data set [5] it was 79 nM; in data set [6], 942 nM; in [9], 3280 nM.

Regarding `O=C(Nc1cc(F)c(N(c2cccn3nccc23)C2CCC2)cc1F)c1ccnn(-c2ccc(F)cc2)c1=O`, the IC50 was found to be 16 nM in data set [10]; 30 nM in [1]; 158 nM in [4]; 24 nM in [5]; 57 nM in data set [6]; 222 nM in data set [9].

For the molecule `Cn1ccc(CCN(c2cc(F)c(NC(=O)c3ccnn(-c4ccc(F)cn4)c3=O)cc2F)c2cccn3nccc23)n1`, the IC50 in data set [1] was 2 nM; in data set [4], 25 nM; in data set [5], 4 nM; in data set [6], 19 nM; in [9] it was 58 nM.

In the case of `Cn1ccc([C@H]2C[C@H](N(c3cc(Cl)c(NC(=O)c4ccnn(-c5ccc(F)cn5)c4=O)cc3F)c3nccn4nccc34)C2)n1`, the IC50 in [10] turned out to be 12 nM; in data set [1], 13 nM; in data set [4] it was 97 nM; in data set [5] it was 21 nM; in data set [6], 125 nM; in data set [9] it was 479 nM. The values for the CLhep predicted at 2 µM in [2] and in data set [8] were 5 mL/min/kg and 9 mL/min/kg, respectively. In addition, the Papp A→B at 2 h, 1 µM in data set [3] came out at 6 ×10⁻⁶ cm/s. Besides, the efflux ratio at 2 h, 1 µM in [7] was determined as 1.

Regarding `CCN(c1cc(F)c(NC(=O)c2ccnn(-c3ccc(F)cc3)c2=O)cc1F)c1cccn2nccc12`, the IC50 in data set [10] was 36 nM; in data set [1] it was 38 nM; in [4], 198 nM; in data set [5] it was 64 nM; in data set [6], 172 nM; in data set [9] it was 622 nM.

Take `CC(C)(C#N)CN(c1cc(F)c(NC(=O)c2ccnn(-c3ccc(F)cn3)c2=O)cc1F)c1cccn2nccc12`: the concentration for half-maximal inhibition (IC50) in [10] worked out at 3 nM; in data set [1], 2 nM; in data set [4], 57 nM; in data set [5] it was 5 nM; in data set [6], 39 nM; in data set [9] it was 96 nM.

Take `Cn1ccc([C@H]2C[C@H](N(c3cc(F)c(NC(=O)c4ccnn(-c5ccc(F)cn5)c4=O)cc3F)c3cccn4nccc34)C2)n1`: the IC50 came to 4 nM in data set [1]; 20 nM in data set [4]; 5 nM in [5]; 12 nM in data set [6]; 36 nM in data set [9]. The CLhep predicted at 2 µM in data set [2] was 21 mL/min/kg; in data set [8], 77 mL/min/kg. In addition, the Papp A→B at 2 h, 1 µM in data set [3] was 5 ×10⁻⁶ cm/s.
